Test results taken from ChEMBL document CHEMBL1201862, “PubChem BioAssay data set” (2004).
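48-hour exposure; five concentrations; linearly interpolated endpoints. GI50 marks 50% less growth.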 The source made the active and inactive calls. No stated cut-off is given here; in the data, active = GI50 up to about 1.1 µM and inactive = higher.

Legend:
Experiment in all cases: growth of human tumour cells (NCI), 48 h
786-0 = tested on: 786-0
A498 = tested on: A498
A549 = tested on: A549
ACHN = tested on: ACHN
BT-549 = tested on: BT-549
CCRF-CEM = tested on: CCRF-CEM
COLO 205 = tested on: COLO 205
DU-145 = tested on: DU-145
EKVX = tested on: EKVX
HCC 2998 = tested on: HCC 2998
HCT-116 = tested on: HCT-116
HCT-15 = tested on: HCT-15
HL-60 = tested on: HL-60
HOP-62 = tested on: HOP-62
HOP-92 = tested on: HOP-92
HT-29 = tested on: HT-29
Hs-578T = tested on: Hs-578T
IGROV-1 = tested on: IGROV-1
K562 = tested on: K562
KM12 = tested on: KM12
LOX IMVI = tested on: LOX IMVI
M14 = tested on: M14
MCF7 = tested on: MCF7
MDA-MB-231 = tested on: MDA-MB-231
MDA-MB-435 = tested on: MDA-MB-435
MDA-N = tested on: MDA-N
MOLT-4 = tested on: MOLT-4
Malme-3M = tested on: Malme-3M
NCI-H226 = tested on: NCI-H226
NCI-H23 = tested on: NCI-H23
NCI-H460 = tested on: NCI-H460
NCI-H522 = tested on: NCI-H522
NCI/ADR-RES = tested on: NCI/ADR-RES
OVCAR-3 = tested on: OVCAR-3
OVCAR-4 = tested on: OVCAR-4
OVCAR-5 = tested on: OVCAR-5
OVCAR-8 = tested on: OVCAR-8
PC-3 = tested on: PC-3
RPMI-8226 = tested on: RPMI-8226
RXF 393 = tested on: RXF 393
SF-268 = tested on: SF-268
SF-295 = tested on: SF-295
SF-539 = tested on: SF-539
SK-MEL-28 = tested on: SK-MEL-28
SK-MEL-5 = tested on: SK-MEL-5
SK-OV-3 = tested on: SK-OV-3
SN12C = tested on: SN12C
SNB-19 = tested on: SNB-19
SNB-75 = tested on: SNB-75
SR = tested on: SR
SW-620 = tested on: SW-620
T47D = tested on: T47D
TK-10 = tested on: TK-10
U-251 = tested on: U-251
UACC-257 = tested on: UACC-257
UACC-62 = tested on: UACC-62
UO-31 = tested on: UO-31

COc1ccc(NCC(=O)Nn2c(-c3ccccc3)nc3ccccc3c2=O)cc1
GI50 (786-0): 25.6 µM (inactive)
GI50 (A498): 23.3 µM (inactive)
GI50 (A549): 53.7 µM (inactive)
GI50 (ACHN): 38.4 µM (inactive)
GI50 (BT-549): 23.3 µM (inactive)
GI50 (CCRF-CEM): 24.2 µM (inactive)
GI50 (COLO 205): 37.2 µM (inactive)
GI50 (DU-145): > 100 µM (inactive)
GI50 (EKVX): 69.2 µM (inactive)
GI50 (HCC 2998): 77.6 µM (inactive)
GI50 (HCT-116): > 10 µM (inactive)
GI50 (HCT-15): 54 µM
GI50 (HL-60): 42.3 µM (inactive)
GI50 (HOP-62): 86.1 µM (inactive)
GI50 (HOP-92): 25.4 µM (inactive)
GI50 (HT-29): 32.4 µM (inactive)
GI50 (Hs-578T): 28.1 µM (inactive)
GI50 (IGROV-1): 27 µM (inactive)
GI50 (K562): 24.5 µM (inactive)
GI50 (KM12): 70.8 µM (inactive)
GI50 (LOX IMVI): 19.6 µM (inactive)
GI50 (M14): 41.3 µM (inactive)
GI50 (MCF7): 18.2 µM (inactive)
GI50 (MDA-MB-231): 19 µM (inactive)
GI50 (MDA-MB-435): 51.8 µM (inactive)
GI50 (MDA-N): 63.4 µM (inactive)
GI50 (MOLT-4): 18.4 µM (inactive)
GI50 (Malme-3M): 30 µM (inactive)
GI50 (NCI-H226): > 100 µM (inactive)
GI50 (NCI-H23): 37.2 µM (inactive)
GI50 (NCI-H460): 51.1 µM (inactive)
GI50 (NCI-H522): > 10 µM (inactive)
GI50 (NCI/ADR-RES): 25.2 µM (inactive)
GI50 (OVCAR-3): 60.7 µM (inactive)
GI50 (OVCAR-4): 33.7 µM (inactive)
GI50 (OVCAR-5): > 100 µM (inactive)
GI50 (OVCAR-8): 31.9 µM (inactive)
GI50 (PC-3): 35.6 µM (inactive)
GI50 (RPMI-8226): 24.2 µM (inactive)
GI50 (RXF 393): > 10 µM (inactive)
GI50 (SF-268): 36.2 µM (inactive)
GI50 (SF-295): > 100 µM (inactive)
GI50 (SF-539): 39.2 µM (inactive)
GI50 (SK-MEL-28): 74.5 µM (inactive)
GI50 (SK-MEL-5): 14.8 µM (inactive)
GI50 (SK-OV-3): > 100 µM (inactive)
GI50 (SN12C): 36.6 µM (inactive)
GI50 (SNB-19): 50.2 µM (inactive)
GI50 (SNB-75): 44.4 µM (inactive)
GI50 (SR): 35.8 µM (inactive)
GI50 (SW-620): 28.2 µM (inactive)
GI50 (T47D): 29.9 µM (inactive)
GI50 (TK-10): > 100 µM (inactive)
GI50 (U-251): 28.7 µM (inactive)
GI50 (UACC-257): 52.2 µM (inactive)
GI50 (UACC-62): 14.1 µM (inactive)
GI50 (UO-31): > 100 µM (inactive)
